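Assay format: 96-well plates, 48-hour exposure. GI50: concentration for 50% inhibition of growth. TGI marks complete inhibition of growth.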
Tests used:
Assay in all cases: DTP human tumour cell line panel, 48 h
NCI-H460 lung = tested on: NCI-H460 lung
BT-549 breast = tested on: BT-549 breast
MALME-3M melanoma = tested on: MALME-3M melanoma
A498 renal = tested on: A498 renal
NCI-H522 lung = tested on: NCI-H522 lung
SF-295 CNS = tested on: SF-295 CNS
HL-60(TB) leukemia = tested on: HL-60(TB) leukemia
KM12 colon = tested on: KM12 colon
HOP-62 NSCLC = tested on: HOP-62 NSCLC
SF-268 CNS = tested on: SF-268 CNS
SR leukemia = tested on: SR leukemia
DU-145 prostate = tested on: DU-145 prostate
MDA-MB-468 breast = tested on: MDA-MB-468 breast
TK-10 renal = tested on: TK-10 renal
HCT-116 colon = tested on: HCT-116 colon
SNB-19 CNS = tested on: SNB-19 CNS
SK-MEL-2 melanoma = tested on: SK-MEL-2 melanoma
SN12C renal = tested on: SN12C renal
COLO 205 colon = tested on: COLO 205 colon
PC-3 prostate = tested on: PC-3 prostate
EKVX NSCLC = tested on: EKVX NSCLC
SF-539 CNS = tested on: SF-539 CNS
786-0 renal = tested on: 786-0 renal
UACC-62 melanoma = tested on: UACC-62 melanoma
NCI/ADR-RES ovarian = tested on: NCI/ADR-RES ovarian
K-562 leukemia = tested on: K-562 leukemia
OVCAR-4 ovarian = tested on: OVCAR-4 ovarian
HCT-15 colon = tested on: HCT-15 colon
SNB-75 CNS = tested on: SNB-75 CNS
HCC-2998 colon = tested on: HCC-2998 colon
MDA-MB-231 breast = tested on: MDA-MB-231 breast
MOLT-4 leukemia = tested on: MOLT-4 leukemia
IGROV1 ovarian = tested on: IGROV1 ovarian
LOX IMVI melanoma = tested on: LOX IMVI melanoma
HT29 colon = tested on: HT29 colon
OVCAR-3 ovarian = tested on: OVCAR-3 ovarian
CAKI-1 renal = tested on: CAKI-1 renal
NCI-H226 lung = tested on: NCI-H226 lung
RXF 393 renal = tested on: RXF 393 renal
NCI-H23 lung = tested on: NCI-H23 lung
SK-MEL-5 melanoma = tested on: SK-MEL-5 melanoma
T-47D breast = tested on: T-47D breast
M14 melanoma = tested on: M14 melanoma
UO-31 renal = tested on: UO-31 renal
OVCAR-5 ovarian = tested on: OVCAR-5 ovarian
A549 NSCLC = tested on: A549 NSCLC
HOP-92 NSCLC = tested on: HOP-92 NSCLC
SW-620 colon = tested on: SW-620 colon
MCF7 breast = tested on: MCF7 breast
RPMI-8226 leukemia = tested on: RPMI-8226 leukemia
UACC-257 melanoma = tested on: UACC-257 melanoma
OVCAR-8 ovarian = tested on: OVCAR-8 ovarian
SK-OV-3 ovarian = tested on: SK-OV-3 ovarian
CCRF-CEM leukemia = tested on: CCRF-CEM leukemia
ACHN renal = tested on: ACHN renal
HS 578T breast = tested on: HS 578T breast
MDA-MB-435 = tested on: MDA-MB-435
U251 CNS = tested on: U251 CNS
SK-MEL-28 melanoma = tested on: SK-MEL-28 melanoma

## CS(=O)(=O)Nc1cncc(-c2ccc3ncnc(NCc4ccccc4)c3c2)c1
NCI-H460 lung
  GI50: 25.6 µM
  TGI: 94.3 µM
BT-549 breast
  GI50: 3.63 µM
  TGI: 21.5 µM
MALME-3M melanoma
  GI50: 4.17 µM
  TGI: 21.5 µM
A498 renal
  GI50: 13.1 µM
  TGI: 36.1 µM
NCI-H522 lung
  GI50: 4.21 µM
  TGI: 18.9 µM
SF-295 CNS
  GI50: 16.4 µM
  TGI: 39.4 µM
HL-60(TB) leukemia
  GI50: 10.3 µM
  TGI: 40.9 µM
KM12 colon
  GI50: 14.2 µM
  TGI: 30 µM
HOP-62 NSCLC
  GI50: 12.2 µM
  TGI: 35 µM
SF-268 CNS
  GI50: 10.5 µM
  TGI: 36.7 µM
SR leukemia
  GI50: 8.84 µM
  TGI: 40.3 µM
DU-145 prostate
  GI50: 22.2 µM
  TGI: > 100 µM
MDA-MB-468 breast
  GI50: 2.14 µM
  TGI: 8.25 µM
TK-10 renal
  GI50: 10.7 µM
  TGI: 29.9 µM
HCT-116 colon
  GI50: 13.9 µM
  TGI: 29.1 µM
SNB-19 CNS
  GI50: 9.74 µM
  TGI: 26.2 µM
SK-MEL-2 melanoma
  GI50: 5.75 µM
  TGI: 19.3 µM
SN12C renal
  GI50: 12.4 µM
  TGI: 39.1 µM
COLO 205 colon
  GI50: 13.2 µM
  TGI: 26.6 µM
PC-3 prostate
  GI50: 14.6 µM
  TGI: 38.3 µM
EKVX NSCLC
  GI50: 12.9 µM
  TGI: 31.4 µM
SF-539 CNS
  GI50: 11.9 µM
  TGI: 27.6 µM
786-0 renal
  GI50: 15 µM
  TGI: 37.3 µM
UACC-62 melanoma
  GI50: 7.19 µM
  TGI: 20.4 µM
NCI/ADR-RES ovarian
  GI50: > 100 µM
  TGI: > 100 µM
K-562 leukemia
  GI50: 18.7 µM
  TGI: > 100 µM
OVCAR-4 ovarian
  GI50: 12.2 µM
  TGI: 50.2 µM
HCT-15 colon
  GI50: 23.3 µM
  TGI: 98.3 µM
SNB-75 CNS
  GI50: 6.7 µM
  TGI: 32.8 µM
HCC-2998 colon
  GI50: 11.5 µM
  TGI: 23.8 µM
MDA-MB-231 breast
  GI50: 12.3 µM
  TGI: 27 µM
MOLT-4 leukemia
  GI50: 5.53 µM
  TGI: 74 µM
IGROV1 ovarian
  GI50: 7.73 µM
  TGI: 22.9 µM
LOX IMVI melanoma
  GI50: 11.9 µM
  TGI: 24.2 µM
HT29 colon
  GI50: 14.4 µM
  TGI: 30 µM
OVCAR-3 ovarian
  GI50: 5.93 µM
  TGI: 21.6 µM
CAKI-1 renal
  GI50: 12.8 µM
  TGI: 30.2 µM
NCI-H226 lung
  GI50: 14 µM
  TGI: 37.1 µM
RXF 393 renal
  GI50: 10.8 µM
  TGI: 26.6 µM
NCI-H23 lung
  GI50: 12.7 µM
  TGI: 28.1 µM
SK-MEL-5 melanoma
  GI50: 12.9 µM
  TGI: 25.6 µM
T-47D breast
  GI50: 2.85 µM
  TGI: 12.7 µM
M14 melanoma
  GI50: 14.6 µM
  TGI: 45.7 µM
UO-31 renal
  GI50: 12.1 µM
  TGI: 36.5 µM
OVCAR-5 ovarian
  GI50: 12.3 µM
  TGI: 32.9 µM
A549 NSCLC
  GI50: 15.5 µM
  TGI: 31.7 µM
HOP-92 NSCLC
  GI50: 3.92 µM
  TGI: 20.1 µM
SW-620 colon
  GI50: 17.1 µM
  TGI: 41.6 µM
MCF7 breast
  GI50: 4.56 µM
  TGI: 24.6 µM
RPMI-8226 leukemia
  GI50: 15.1 µM
  TGI: 38 µM
UACC-257 melanoma
  GI50: 13.8 µM
  TGI: 51.6 µM
OVCAR-8 ovarian
  GI50: 19.1 µM
  TGI: 79 µM
SK-OV-3 ovarian
  GI50: 15.5 µM
  TGI: 34.9 µM
CCRF-CEM leukemia
  GI50: 4.58 µM
  TGI: 33.3 µM
ACHN renal
  GI50: 20.2 µM
  TGI: > 100 µM
HS 578T breast
  GI50: 3.36 µM
  TGI: 20.5 µM
MDA-MB-435
  GI50: 10.8 µM
  TGI: 27.4 µM
U251 CNS
  GI50: 7.54 µM
  TGI: 41 µM
SK-MEL-28 melanoma
  GI50: 11 µM
  TGI: 38.3 µM

Source: PubChem BioAssay (NCI)
